From patent publication US10227357B2, “Compounds and methods for kinase modulation, and indications therefor” (Plexxikon Inc., priority 2012, dated 2019) come the findings set out here.

For the assay, the target named is T1, c-kit mutant D816V (Homo sapiens, UniProt P10721, D816V/DEL694-753).
T1 construct: residues 551-934, kinase insertion domain residues 694-753 deleted; 6x-histidine (N); made in house; host or cells: E. coli Arctic Express (DE3) RIL (Stratagene)
T1 sequence (P10721 with tags, fused parts or gaps DEL694-753/D816V): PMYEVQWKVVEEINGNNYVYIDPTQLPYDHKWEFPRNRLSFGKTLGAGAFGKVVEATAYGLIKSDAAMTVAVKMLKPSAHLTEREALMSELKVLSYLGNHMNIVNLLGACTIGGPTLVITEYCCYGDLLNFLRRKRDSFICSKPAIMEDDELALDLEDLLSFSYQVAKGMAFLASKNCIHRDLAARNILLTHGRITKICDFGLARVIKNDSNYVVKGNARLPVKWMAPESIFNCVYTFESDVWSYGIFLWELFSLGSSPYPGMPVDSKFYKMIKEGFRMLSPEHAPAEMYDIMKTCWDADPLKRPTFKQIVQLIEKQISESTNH
Put plainly: c-Kit mutant D816V biochemical assay, AlphaScreen. The conditions noted are these: c-kit D816V biochemical inhibitory activity; read-out: Biochemical activity (IC50 μM) Kit D816V. On the procedure:
Compounds to be tested were dissolved in DMSO to a concentration of 20 mM. These were diluted 30 μl into 120 μl of DMSO (4 mM) and 1 μl was added to an assay plate. These were then serially diluted 1:3 (50 μl to 100 μl DMSO) for a total of 8 points. Plates were prepared such that each kinase reaction is 20 μl in 1× kinase buffer (25 mM HEPES, pH 7.2, 8 mM MgCl2, 2 mM MnCl2, 50 mM NaCl, 0.01% Brij, 1 mM DTT, 0.01% BSA), 5% DMSO and 10 μM ATP. […] After incubation of the kinase reaction for 30 minutes at room temperature, 5 μl of donor beads (Streptavidin coated beads (Perkin Elmer Life Science) final concentration 7.5 μg/ml) in stop buffer (25 mM Hepes pH 7.5, 100 mM EDTA, 0.01% BSA) was added, the sample was mixed and incubated for 20 minutes at room temperature before adding 5 μl of acceptor beads (PY20 coated beads (Perkin Elmer Life Science) final concentration 7.5 μg/ml) in stop buffer. The samples were incubated for 60 minutes at room temperature and the signal per well was read on EnVision reader. […] The signal vs. compound concentration was used to determine the IC50.
Cells were grown in Terrific Broth (TB) media to an OD600 of 0.6 at 37° C. at which temperature was reduced to 10° C., protein was induced with 1.0 mM IPTG for 18 hours and harvested by centrifugation at 8000×g for 20 minutes. Cells were re-suspended in 0.1M KPO4 pH 8.0, 250 mM NaCl, 10% Glycerol, 0.75% NP-40, 25 mM Imidazole, 5 mM BME with 0.2 mg/ml Lysosyme, 2.0 mM PMSF, 25 μg/ml DNAse I, incubated in ice for 30 minutes and lysed with a cell disruptor (MicroFluidics). The lysate was clarified by centrifugation at 20,000×g for 2 hours. The protein was captured with Talon resin (Clontech). Contaminating proteins were washed off with 25 mM Tris-HCl pH 8.3, 250 mM NaCl, 15% Glycerol, 1% Triton X-100, and protein eluted using 100 mM EDTA. The protein was further purified using Gel Filtration column 26/600 Superdex 200 (GE) in 50 mM Tris-HCl, pH 8.0, 250 mM NaCl, 15% Glycerol, 5 mM BME. The protein was aliquoted and flash-frozen in liquid Nitrogen.
For orientation: In Alpha technology, singlet oxygen from a donor bead excites a nearby acceptor bead.
For `CC(NC(=O)N1CCN(c2ncnc3[nH]c(-c4ccc(Cl)cc4)cc23)C[C@H]1C)c1ccc(Cl)cc1` (stereo in doubt) [P-0021, (2R)-N-[(1S)-1-(4-chlorophenyl)ethyl]-4-[6-(4-chlorophenyl)-7H-pyrrolo[2,3-d]pyrimidin-4-yl]-2-methyl-piperazine-1-carboxamide], the IC50 (as a rule, the concentration at which inhibition is half-maximal) is 1 to 10 µM.
Under `CC(C)(C)Oc1ccc(NC(=O)N2CCN(c3ncnc4[nH]c(-c5ccc(Cl)cc5)cc34)CC2)cc1` [P-0017, N-(4-tert-butoxyphenyl)-4-[6-(4-chlorophenyl)-7H-pyrrolo[2,3-d]pyrimidin-4-yl]piperazine-1-carboxamide] stands 10 to 200 µM; under `C[C@@H]1CN(c2ncnc3[nH]c(-c4ccc(Cl)cc4)cc23)CCN1C(=O)N[C@H](C)c1ccc(F)cc1` [P-0022, (2R)-4-[6-(4-chlorophenyl)-7H-pyrrolo[2,3-d]pyrimidin-4-yl]-N-[(1R)-1-(4-fluorophenyl)ethyl]-2-methyl-piperazine-1-carboxamide], 0.0001 to 1 µM.
The figure for `COc1cccc([C@@H](C)NC(=O)N2CCN(c3ncnc4[nH]c(-c5ccc(Cl)cc5)cc34)C[C@H]2C)c1` [P-0025, (2R)-4-[6-(4-chlorophenyl)-7H-pyrrolo[2,3-d]pyrimidin-4-yl]-N-[(1R)-1-(3-methoxyphenyl)ethyl]-2-methyl-piperazine-1-carboxamide] is 10 to 200 µM.
The figure for `O=S(=O)(NN1CCN(c2ncnc3[nH]c(-c4ccc(F)cc4)cc23)CC1)c1ccc(OC(F)(F)F)cc1` [P-0026, N-[4-[6-(4-fluorophenyl)-7H-pyrrolo[2,3-d]pyrimidin-4-yl]piperazin-1-yl]-4-(trifluoromethoxy)benzenesulfonamide] is 10 to 200 µM.
Turning to `C[C@H](NC(=O)N1CCN(c2ncnc3[nH]c(-c4ccc(F)cc4)cc23)CC1)c1cccc(C(F)(F)F)c1` [P-0033, 4-[6-(4-fluorophenyl)-7H-pyrrolo[2,3-d]pyrimidin-4-yl]-N-[(1S)-1-[3-(trifluoromethyl)phenyl]ethyl]piperazine-1-carboxamide], the IC50 is 0.0001 to 1 µM.
Under `C[C@@H]1CN(c2ncnc3[nH]c(-c4ccc(F)cc4)cc23)CCN1C(=O)N[C@H](C)c1ccc(F)cc1` [P-0034, (2R)-N-[(1R)-1-(4-fluorophenyl)ethyl]-4-[6-(4-fluorophenyl)-7H-pyrrolo[2,3-d]pyrimidin-4-yl]-2-methyl-piperazine-1-carboxamide] stands 1 to 10 µM.
Under `C[C@H](NC(=O)N1CCN(c2ncnc3[nH]c(-c4ccc(F)cc4)cc23)CC1)c1cccc(F)c1` [P-0036, N-[(1S)-1-(3-fluorophenyl)ethyl]-4-[6-(4-fluorophenyl)-7H-pyrrolo[2,3-d]pyrimidin-4-yl]piperazine-1-carboxamide] stands 0.0001 to 1 µM; under `O=C(NCc1cccc(OC(F)F)c1)N1CCN(c2ncnc3[nH]c(-c4ccc(Cl)cc4)cc23)CC1` [P-0037, 4-[6-(4-chlorophenyl)-7H-pyrrolo[2,3-d]pyrimidin-4-yl]-N-[[3-(difluoromethoxy)phenyl]methyl]piperazine-1-carboxamide], 1 to 10 µM.
On to `COc1cccc([C@H](C)NC(=O)N2CCN(c3ncnc4[nH]c(-c5ccc(Cl)cc5)cc34)CC2)c1` [P-0038, 4-[6-(4-chlorophenyl)-7H-pyrrolo[2,3-d]pyrimidin-4-yl]-N-[(1S)-1-(3-methoxyphenyl)ethyl]piperazine-1-carboxamide], for which the IC50 is 0.0001 to 1 µM.
Consider `Cc1ccc(NC(=O)N2CCN(c3ncnc4[nH]c(-c5ccncc5)cc34)C[C@@H]2C)cn1` [P-0039, (2S)-2-methyl-N-(6-methyl-3-pyridyl)-4-[6-(4-pyridyl)-7H-pyrrolo[2,3-d]pyrimidin-4-yl]piperazine-1-carboxamide], for which the IC50 lay within 1 to 10 µM.
Under `C[C@H]1CN(c2ncnc3[nH]c(-c4ccncc4)cc23)CCN1C(=O)NCc1cccc(Cl)c1` [P-0040, (2S)-N-[(3-chlorophenyl)methyl]-2-methyl-4-[6-(4-pyridyl)-7H-pyrrolo[2,3-d]pyrimidin-4-yl]piperazine-1-carboxamide] stands 0.0001 to 1 µM.
As for `C[C@H]1CN(c2ncnc3[nH]c(-c4ccncc4)cc23)CCN1C(=O)NCc1ccc(F)cc1` [P-0041, (2S)-N-[(4-fluorophenyl)methyl]-2-methyl-4-[6-(4-pyridyl)-7H-pyrrolo[2,3-d]pyrimidin-4-yl]piperazine-1-carboxamide], the IC50 fell in the range of 0.0001 to 1 µM.
Take `CC[C@H](NC(=O)N1CCN(c2ncnc3[nH]c(-c4ccncc4)cc23)C[C@@H]1C)c1ccccc1` [P-0048, (2S)-2-methyl-N-[(1S)-1-phenylpropyl]-4-[6-(4-pyridyl)-7H-pyrrolo[2,3-d]pyrimidin-4-yl]piperazine-1-carboxamide]: the 50% inhibitory concentration (IC50) was in the range of 0.0001 to 1 µM.
For `C[C@H](NC(=O)N1CCN(c2ncnc3[nH]c(-c4ccncc4)cc23)C[C@@H]1C)c1ccc(F)cc1` [P-0049, (2S)-N-[(1S)-1-(4-fluorophenyl)ethyl]-2-methyl-4-[6-(4-pyridyl)-7H-pyrrolo[2,3-d]pyrimidin-4-yl]piperazine-1-carboxamide], the IC50 fell in the range of 0.0001 to 1 µM.
As to `C[C@H](NC(=O)N1CCN(c2ncnc3[nH]c(-c4ccncc4)cc23)C[C@@H]1C)c1ccc(Cl)cc1` [P-0050, (2S)-N-[(1S)-1-(4-chlorophenyl)ethyl]-2-methyl-4-[6-(4-pyridyl)-7H-pyrrolo[2,3-d]pyrimidin-4-yl]piperazine-1-carboxamide], the IC50 lay within 0.0001 to 1 µM.
The figure for `COc1cccc([C@H](C)NC(=O)N2CCN(c3ncnc4[nH]c(-c5ccncc5)cc34)C[C@@H]2C)c1` [P-0051, (2S)-N-[(1S)-1-(3-methoxyphenyl)ethyl]-2-methyl-4-[6-(4-pyridyl)-7H-pyrrolo[2,3-d]pyrimidin-4-yl]piperazine-1-carboxamide] is 0.0001 to 1 µM; for `CC[C@H](NC(=O)N1CCN(c2ncnc3[nH]c(-c4ccncc4)cc23)C[C@H]1C)c1ccccc1` [P-0054, (2R)-2-methyl-N-[(1S)-1-phenylpropyl]-4-[6-(4-pyridyl)-7H-pyrrolo[2,3-d]pyrimidin-4-yl]piperazine-1-carboxamide] it is 0.0001 to 1 µM.
Under `Cc1ccc(NC(=O)N2CCN(c3ncnc4[nH]c(-c5ccncc5)cc34)C[C@H]2C)cn1` [P-0055, (2R)-2-methyl-N-(6-methyl-3-pyridyl)-4-[6-(4-pyridyl)-7H-pyrrolo[2,3-d]pyrimidin-4-yl]piperazine-1-carboxamide] stands 0.0001 to 1 µM; under `COc1cccc([C@H](C)NC(=O)N2CCN(c3ncnc4[nH]c(-c5ccc(C#N)cc5)cc34)CC2)c1` [P-0069, 4-[6-(4-cyanophenyl)-7H-pyrrolo[2,3-d]pyrimidin-4-yl]-N-[(1S)-1-(3-methoxyphenyl)ethyl]piperazine-1-carboxamide], 0.0001 to 1 µM.
Under `O=C(NCc1cccc(OC(F)F)c1)N1CCN(c2ncnc3[nH]c(-c4ccc(F)cc4)cc23)CC1` [P-0073, N-[[3-(difluoromethoxy)phenyl]methyl]-4-[6-(4-fluorophenyl)-7H-pyrrolo[2,3-d]pyrimidin-4-yl]piperazine-1-carboxamide] stands 1 to 10 µM; under `O=C(NCc1cccc(OC(F)(F)F)c1)N1CCN(c2ncnc3[nH]c(-c4ccc(F)cc4)cc23)CC1` [P-0076, 4-[6-(4-fluorophenyl)-7H-pyrrolo[2,3-d]pyrimidin-4-yl]-N-[[3-(trifluoromethoxy)phenyl]methyl]piperazine-1-carboxamide], 1 to 10 µM; under `CCNC(=O)N1CCN(c2ncnc3[nH]c(-c4ccc(F)cc4)cc23)CC1` [P-0088, N-ethyl-4-[6-(4-fluorophenyl)-7H-pyrrolo[2,3-d]pyrimidin-4-yl]piperazine-1-carboxamide], 1 to 10 µM.
Regarding `O=C(NCc1ccc(F)cc1)N1CCN(c2ncnc3[nH]c(-c4ccc(F)cc4)cc23)CC1` [P-0090, N-[(4-fluorophenyl)methyl]-4-[6-(4-fluorophenyl)-7H-pyrrolo[2,3-d]pyrimidin-4-yl]piperazine-1-carboxamide], the IC50 was 0.0001 to 1 µM.
Under `COc1cccc(CNC(=O)N2CCN(c3ncnc4[nH]c(-c5ccc(F)cc5)cc34)CC2)n1` [P-0122, 4-[6-(4-fluorophenyl)-7H-pyrrolo[2,3-d]pyrimidin-4-yl]-N-[(6-methoxy-2-pyridyl)methyl]piperazine-1-carboxamide] stands 1 to 10 µM.
Turning to `O=C(NCc1ccc(F)cn1)N1CCN(c2ncnc3[nH]c(-c4cccnc4)cc23)CC1` [P-0124, N-[(5-fluoro-2-pyridyl)methyl]-4-[6-(3-pyridyl)-7H-pyrrolo[2,3-d]pyrimidin-4-yl]piperazine-1-carboxamide], the IC50 was in the range of 1 to 10 µM.
